Like-named read-outs stand apart in the source and are kept apart here.
Assays:
K562 cells = experiment: MTS cell proliferation and viability test, K562 leukemia line; format: cell-based, human; details: incubating for 72 hours, read-out: IC50 (concentration which results in a 50% loss of cell proliferation and viability)
Description: […]
(§1) The cell proliferation and viability were determined in a test using 3-(4,5-dimethylthiazol-2-yl)-5-(3-carboxymethoxyphenyl)-2-(4-sulfophenyl)-2H-tetrazolium (MTS) according to Fujishita T. et al., Oncology, 2003, 64 (4), 399-406. In this test, the mitochondrial ability of the living cells to convert MTS to a colored compound is measured after incubating for 72 hours a compound of formula (I) according to the invention. […]

MDA-MB231 cells = experiment: MTS cell proliferation and viability test, MDA-MB231 breast cancer line; format: cell-based, human; details: incubating for 72 hours, read-out: IC50 (concentration which results in a 50% loss of cell proliferation and viability)
Description: […]
as §1

IC50 (K562 cells; Homo sapiens) [nM] | IC50 (K562 cells) [nM] | IC50 (MDA-MB231 cells) [nM] | SMILES
3 | – | – | Cn1c(=O)c(-c2c(Cl)cccc2Cl)cc2cnc(Nc3ccc4c(c3)OC(CN)O4)nc21 (racemic) [Example 1, (R/S)-2-[[2-(aminomethyl)-1,3-benzodioxol-5-yl]amino]-6-(2,6-dichlorophenyl)-8-methyl-8H-pyrido[2,3-d]pyrimidin-7-one]
– | 20.5 | 183 | CNC(=O)C1COc2ccc(Nc3ncc4cc(-c5c(Cl)cccc5Cl)c(=O)n(C)c4n3)cc2O1 (racemic) [Example 8, (R/S)-N-methylamide of 7-[6-(2,6-dichlorophenyl)-8-methyl-7-oxo-7,8-dihydropyrido[2,3-d]pyrimidin-2-ylamino]-2,3-dihydrobenzo[1,4]dioxin-2-carboxylic acid]
– | – | 10 | Cn1c(=O)c(-c2c(Cl)cccc2Cl)cc2cnc(Nc3ccc4c(c3)COC4)nc21 [Example 2, 6-(2,6-dichlorophenyl)-2-[(1,3-dihydro-5-iso-benzofuranyl)amino]-8-methyl-8H-pyrido[2,3-d]pyrimidin-7-one]
